# Experimental data from article PMC5548886 (Cancer Medicine, 2017).
# Read-outs that look alike come from different tables or passages of the source.
# Experiments:
# [1] = test system: patients with locally advanced or metastatic melanoma; test: Phase I dose-escalation: safety, adverse events (NCI CTCAE v3.0), DLT and MTD; assay type: in vivo
# Source text: This study was an open‐label, multicenter, nonrandomized, phase I/II, dose‐escalation study of orally administered RAF265. […] The study was comprised of two phases: A dose escalation phase and an expansion phase at the MTD/RP2D. The dose‐escalation phase was guided by pharmacokinetics (PK), pharmacodynamics (PD) and safety. […] In the expansion phase (cohort 7.1) the PK run in was omitted and patients received a loading dose in 3 divided doses followed by lower daily dose beginning on Cycle 1, Day 2. The cycle length was 28 days in all cohorts. Here, we report the dose escalation and expansion arm investigating a continuous treatment regimen.
# Medical history and demographics were collected at screening. The safety of study medication was evaluated on the basis of rate, type, severity graded in accordance with NCI CTCAE version 3.0. Safety assessments consisted of collecting all AEs, serious adverse events (SAEs) with their severity and relationship with study drug, and pregnancies. They included the regular monitoring of hematology, blood chemistry and urine performed at the study center/central laboratory and regular assessments of vital signs, physical condition, body weight, performance status, and cardiac data (i.e. electrocardiogram (ECG)/echocardiogram (ECHO)). Abnormalities in clinical laboratory tests that were considered clinically significant by the Investigator were recorded on the AE CRF. Dose‐limiting toxicities (DLTs) were defined for various organ systems and other clinically relevant adverse effects (Table S1). The DLT window was the first cycle while AEs were captured for the entire course of treatment. Evaluation of tumor response was conducted at Baseline, and at the end of every 8 weeks of treatment. Response was assessed using the Response Evaluation Criteria in Solid Tumors (RECIST) 1.0. A complete or partial response (CR or PR) was confirmed at least 28 days after the first assessment that documented response and every two cycles thereafter until disease progression, initiation of confounding anticancer therapy, death, loss to follow‐up, withdrawal of consent, or study termination. All patients discontinuing from the study for progressive disease were to have their disease progression documented by radiologic evaluation.
# The MTD was defined as the dose level with 16–33.3% probability of a DLT. […] Descriptive statistic were used for the analysis of PK, biomarker analysis and tumor response data.
# Ki-67 = test system: Ki-67
# Experimental: (§1) Pharmacodynamic markers were examined using peripheral blood samples, tumor and nevi biopsies (when available) and tumor imaging. BRAF mutation status was determined by Sanger sequencing. Pharmacodynamic markers analyzed, in available tumor/nevus samples obtained before treatment or archival tissue and during treatment on cycle 1, day 8 or day 15, including cytoplasmic p‐MEK, p‐ERK, BIM, c‐KIT, p‐AKT473, pS6 and PTEN, and nuclear p‐ERK, Ki‐67, PARP, cyclin D1, MITF, p27, and p53. Biomarker expression was determined by calculating the percentage of change in the H‐score (14) between on‐treatment and fresh/archival pretreatment specimens. Blood levels of VEGFR‐2 and were assessed before and at multiple time points while on treatment using enzyme‐linked immunosorbent assay (ELISA). […] Changes in standard uptake value (SUV) were determined by a blinded, independent central imaging review panel. Complete metabolic response (CMR) was complete resolution of tumor FDG‐PET uptake so SUV is the same as background. Partial metabolic response (PMR) decrease in sum of the tumor SUV of ≥25% from the baseline scan. Progressive metabolic disease (PMD) was defined as an increase in tumor SUV of ≥25% from the baseline scan, or the appearance of new FDG‐PET uptake in metastatic lesions. Stable metabolic disease (SMD) was defined as a change in tumor SUV between the PMR and PMD criteria.
# PARP = test: IHC of tumor biopsies, H-score change on-treatment vs pretreatment; assay type: in vivo, human
# Experimental: as §1
# [2] = test system: soluble VEGFR-2 (sVEGFR-2); test: Blood level by ELISA; assay type: in vivo, human; settings: all dose levels, over time
# Experimental: as §1
smiles,measurement,setting,value
Cn1c(Nc2ccc(C(F)(F)F)cc2)nc2cc(Oc3ccnc(-c4ncc(C(F)(F)F)[nH]4)c3)ccc21 [RAF265],deaths within 28 days of last administration of the study drug,"[1]; 5 deaths, none deemed treatment related",6.5%
same,"AEs requiring dose adjustment or interruption, patients","[1]; human, in vivo",39%
same,Abdominal pain (treatment-emergent grade 3/4),"[1]; human, in vivo",1 (2.4%) n (%)
same,Angina unstable (treatment-emergent grade 3/4),"[1]; human, in vivo",1 (2.4%) n (%)
same,Ataxia (treatment-emergent grade 3/4),"[1]; human, in vivo",1 (2.4%) n (%)
same,Basal cell carcinoma (treatment-emergent grade 3/4),"[1]; human, in vivo",1 (2.4%) n (%)
same,Blood lactic acid increased (treatment-emergent grade 3/4),"[1]; human, in vivo",1 (2.4%) n (%)
same,Cutaneous lupus erythematosus (treatment-emergent grade 3/4),"[1]; human, in vivo",1 (2.4%) n (%)
same,Decreased appetite (treatment-emergent grade 3/4),"[1]; human, in vivo",2 (4.8%) n (%)
same,Diarrhea (treatment-emergent grade 3/4),"[1]; human, in vivo",4 (9.8%) n (%)
same,Dyspnea (treatment-emergent grade 3/4),"[1]; human, in vivo",1 (2.4%) n (%)
same,Fatigue (treatment-emergent grade 3/4),"[1]; human, in vivo",6 (14.4%) n (%)
same,Hematological (treatment-emergent grade 3/4),"[1]; human, in vivo",12 (29.2%) n (%)
same,Hypertension (treatment-emergent grade 3/4),"[1]; human, in vivo",4 (9.8%) n (%)
same,Hypophosphatemia (treatment-emergent grade 3/4),"[1]; human, in vivo",1 (2.4%) n (%)
same,Lipase increased (treatment-emergent grade 3/4),"[1]; human, in vivo",2 (4.8%) n (%)
same,Neutropenia (treatment-emergent grade 3/4),"[1]; human, in vivo",4 (9.8%) n (%)
same,Pancytopenia (treatment-emergent grade 3/4),"[1]; human, in vivo",1 (2.4%) n (%)
same,Pulmonary embolism (treatment-emergent grade 3/4),"[1]; human, in vivo",2 (4.8%) n (%)
same,SAE constipation,"[1]; human, in vivo",2.6%
same,SAE dehydration,"[1]; human, in vivo",5.2%
same,SAE pulmonary embolism,"[1]; human, in vivo",6.5%
same,SAE retinopathy,"[1]; human, in vivo",2.6%
same,SAE thrombocytopenia,"[1]; human, in vivo",3.9%
same,Squamous cell carcinoma (treatment-emergent grade 3/4),"[1]; human, in vivo",2 (4.8%) n (%)
same,Thrombocytopenia (treatment-emergent grade 3/4),"[1]; human, in vivo",7 (17.1%) n (%)
same,"Total (n), treatment-emergent grade 3/4 events","[1]; human, in vivo",41 (53.2%) n (%)
same,Vitreous floaters (treatment-emergent grade 3/4),"[1]; human, in vivo",2 (4.8%) n (%)
same,Weight loss (treatment-emergent grade 3/4),"[1]; human, in vivo",1 (2.4%) n (%)
same,decreased appetite requiring dose adjustment or interruption,"[1]; human, in vivo",5.2%
same,"development of hypertension, patients","[1]; human, in vivo",17%
same,diarrhea requiring dose adjustment or interruption,"[1]; human, in vivo",6.5%
same,fatigue requiring dose adjustment or interruption,"[1]; human, in vivo",7.8%
same,hypertension requiring dose adjustment or interruption,"[1]; human, in vivo",5.2%
same,nausea requiring dose adjustment or interruption,"[1]; human, in vivo",5.2%
same,overall rate of grade 3 and 4 toxicities,"[1]; human, in vivo",53.2%
same,photopsia requiring dose adjustment or interruption,"[1]; human, in vivo",5.2%
same,"serious adverse events (SAEs), patients","[1]; human, in vivo",37.7%
same,thrombocytopenia requiring dose adjustment or interruption,"[1]; human, in vivo",3.9%
same,vitreous floaters requiring dose adjustment or interruption,"[1]; human, in vivo",5.2%
same,"vitreous floaters, treatment-related adverse effect, patients","[1]; human, in vivo",27%
same,patients with dose-limiting toxicities,"[1]; human, in vivo, 28 days",6 patients
same,maximum tolerated dose (MTD),[1]; once daily given continuously (dose level 6),48 mg
same,"Ki67 % change vs pretreatment, Mean (SD)","Ki-67; All patients, n 23",-13.46 (50) %
same,"Ki67 % change vs pretreatment, Median","Ki-67; All patients, n 23",-11.1%
same,"Ki67 % change vs pretreatment, Mean (SD)","Ki-67; DL 5, n 2",0%
same,"Ki67 % change vs pretreatment, Median","Ki-67; DL 5, n 2",0%
same,Ki67 decrease,Ki-67; DL 6,up to 51.8%
same,"Ki67 % change vs pretreatment, Mean (SD)","Ki-67; DL 6, n 6",-47.93 (40.8) %
same,"Ki67 % change vs pretreatment, Median","Ki-67; DL 6, n 6",-51.8%
same,"Ki67 % change vs pretreatment, Mean (SD)","Ki-67; DLs 1 - 4, n 11",+0.21 (59) %
same,"Ki67 % change vs pretreatment, Median","Ki-67; DLs 1 - 4, n 11",-11.1%
same,"Ki67 % change vs pretreatment, Mean (SD)","Ki-67; DLs 7 and 7.1, n 4",-6.08 (20) %
same,"Ki67 % change vs pretreatment, Median","Ki-67; DLs 7 and 7.1, n 4",-2.6%
same,"PARP % change vs pretreatment, Mean (SD)","PARP; All patients, n 14",+89.1 (172.3) %
same,"PARP % change vs pretreatment, Median","PARP; All patients, n 14",+33.3%
same,"PARP % change vs pretreatment, Mean (SD)","PARP; DL 6, n 3",+20.00 (121.2) %
same,"PARP % change vs pretreatment, Median","PARP; DL 6, n 3",0.00%
same,"PARP % change vs pretreatment, Mean (SD)","PARP; DLs 1 - 4, n 8",+65.1 (180.5) %
same,"PARP % change vs pretreatment, Median","PARP; DLs 1 - 4, n 8",-20%
same,"PARP % change vs pretreatment, Mean (SD)","PARP; DLs 7 and 7.1, n 3",+222.2 (167.8) %
same,"PARP % change vs pretreatment, Median","PARP; DLs 7 and 7.1, n 3",+200.00%
same,sVEGFR-2 levels,[2],significant decrease
